Source: patent US12059429B2, “Hornerin: a novel non-VEGF mediated angiogenic protein expressed in both human and mouse angiogenic endothelial cells and human pancreatic cancer cells” (University of Virginia Patent Foundation, priority 2018, dated 2024)

Columns and labels:
hornerin transcript = experiment: qPCR of hornerin transcript in FACS-sorted CD31+CD45- tumor endothelial cells; assay type: in vivo, mouse; conditions: vs Scr siRNA, 20 hours after injection
Procedure: Day 10 tumors were injected with either Scr siRNA or Hrnr siRNA and excised 20 hours later. The tumors were immediately washed in PBS (+Mg/+Ca), minced with scalpels, treated with Collagenase Type II (Worthington Biochemical Corporation, Lakewood, NJ, USA; (2.0 mg/mL) serum-free DMEM, 100 minutes at 37° C.), and filtered through a 40 μm cell strainer. The cell suspension (filtrate) was incubated with the following antibody/dye panel for FACS; anti-CD45 AF488 (1:100; Biolegend, San Diego, CA, USA, 103121, clone 30-F11), anti-CD31 AF647 (1:100; Biolegend, 102415, clone 390), LIVE/DEAD violet stain (1:200; Thermo Fisher). Flow cytometry analysis was completed on the Cyan ADP LX (Beckman Coulter). Compensation and data analysis was completed using FlowJo software (Ashland, OR, USA). […]
RNA was isolated from FACS-sorted CD31^+CD45^− cells according to the manufacturer's protocol (Qiagen mini-prep kit), and concentration and purity were determined using a NanoDrop Spectrophotometer (Thermo Fisher). Complimentary DNA (cDNA) was generated (Qiagen QuantiTect Reverse Transcription Kit) and subjected to pre-amplification (SsoAdvanced PreAmp Supermix, Bio-Rad). […] Melt curve analysis was performed on the hornerin and cyclophilin primer sets prior to data collection and normalized gene expression was determined by the delta delta Ct method.

tumor vessels = experiment: Tumor vessel parameters in L3.6pl tumor sections (CD34, ACTA2, RAVE analysis); assay type: in vivo, mouse
Procedure: Following completion of the treatment schedule, the mice were killed, cardiac perfused, and the tumors were excised and fixed in formalin overnight. The tumors were paraffin embedded and cut into 5 (thin) or 50 μm (thick) sections. Tumor vessel parameters were evaluated in the following number of tumors for each treatment cohort: (Scr siRNA/ctrl., N=10; Hrnr siRNA/ctrl., N=10; Scr siRNA/AV-951, N=4; Hrnr siRNA/AV-951, N=4).
Tumor sections were deparaffinized, rehydrated, heated in antigen retrieval solution (Vector), blocked for 30 minutes in blocking buffer, and incubated with anti-CD34 antibody (Abcam, ab8158, clone MEC14.7; 1:100) in blocking buffer overnight at 4° C. The sections were then incubated with goat anti-rat FITC secondary antibody (Abcam, ab6840; 1:100) in blocking buffer prior to mounting with Prolong Gold Antifade reagent (Invitrogen). Anti-actin, α-smooth muscle Cy3 antibody (Sigma, C6198, clone 1A4; 1:200) was added to the primary antibody solution if assaying for alpha-smooth muscle actin. To compare hornerin expression in vessels and tumor tissue treated with Hrnr siRNA and Scr siRNA, thin paraffin sections were deparaffinized and stained with anti-CD34 and anti-hornerin antibodies described. Images were collected using a Nikon TE 2000-E2 microscope (Nikon Instruments) equipped with a Melles Griot Argon Laser System (Melles Griot, Carlsbad, CA, USA) and a Nikon D-Eclipse C1 confocal attachment and analyzed by Measurement Tool in Image J. To measure the relative hornerin expression in tumor vessels, three vessel segments per image were isolated and their mean intensity and area were measured and recorded. A weighted mean intensity was calculated to correct for differences in selected area. To measure the relative hornerin expression in tumor tissue, the mean intensity from three square sections (75×75 pixel) of tumor tissue per image was measured and recorded.
Vessel parameters were measured using RAVE software (Seaman et al., 2011). For detection of proliferation and apoptosis, the sections were incubated with the primary antibodies anti-Ki67 (Abcam, ab15580; 1:200) or anti-cleaved caspase 3 (Cell Signaling, 9661; 1:200), respectively, overnight at 4° C. followed by incubation with anti-rabbit AF594 (Abcam, 150080; 1:200).

[1] = L3.6pl tumors, RAVE, vs Scr siRNA
[2] = four-group combination experiment, vs control

## 5′-GCAUGGAUCUUGUUGCGGUTT-3′ [Hrnr siRNA]
Hornerin transcript
  reduction in hornerin transcript: 78%
Tumor vessels; ACTA2-positive pixels / CD34-positive pixels, vs Scr siRNA
  increase in ACTA2 coverage of vessels: 2.3 fold
Tumor vessels; CD34-positive vessels per 0.4 mm^2 field, vs Scr siRNA
  number of vessels per field: not different
Tumor vessels; [1]
  fractal dimension (tortuosity): reduced
  vessel radius: overall reduction in vessel radius
  vessel volume fraction (VVF): reduced
Tumor vessels; [2]
  number of vessels per field: no change in the number of vessels per field
  vessel radii: smaller radii
